Four compounds from publication PMC9269301, “Phytochemical Analysis, Antioxidant, Antimicrobial, and Cytotoxic Activity of Different Extracts of Xanthoparmelia stenophylla Lichen from Stara Planina, Serbia” (Plants, 2022) can be followed below.

Converted amounts (≈) assume the structure as drawn. Read-outs that look alike come from different tables or passages of the source. Some results are limits rather than exact numbers.

The subject of experiment [1] is C. albicans ATCC 10231. The experiment in a line: Microdilution with resazurin, antifungal. Format: cell-based, Candida albicans. The settings on record: Candida albicans, ATCC10231, antimycotics. The protocol:
(§1) The tested methanol, acetone, and n-hexane extracts, as well as the component (usnic acid) of X. stenophylla, were dissolved in 10% dimethyl sulfoxide (DMSO) and then diluted into the nutrient liquid medium. DMSO was obtained from Acros Organics (Fair Lawn, NJ, USA). Resazurin was obtained from Alfa Aesar GmbH & Co. (KG, Karlsruhe, Germany).
(§2) The antimicrobial activity of the extracts and components was tested against 19 microorganisms. The experiment involved 15 strains of bacteria (i.e., 6 standard strains: Staphylococcus aureus ATCC 6538, Bacillus subtilis ATCC 6633, Proteus mirabilis ATCC 12453, Pseudomonas aeruginosa ATCC 27853, Klebsiella pneumoniae ATCC 70063, and Escherichia coli ATCC 25922; 9 isolates: Staphylococcus aureus, Escherichia coli, Salmonella enterica, Salmonella Typhimurium, Proteus mirabilis, Klebsiella pneumoniae, Pseudomonas aeruginosa, Bacillus subtilis, and Bacillus cereus). In addition, four fungal strains (i.e., two standard strains: Candida albicans ATCC 10231 and Aspergillus niger ATCC 16888; two isolates: Saccharomyces cerevisiae and Candida albicans) were tested. All isolates were a generous gift from the Institute of Public Health, Kragujevac. The other microorganisms were provided from the collection held by the Microbiology Laboratory Faculty of Science, University of Kragujevac.
(§3) The bacterial suspensions were prepared by the direct colony method. The turbidity of the initial suspension was adjusted using a densitometer (DEN-1, BioSan, Riga, Latvia). When adjusted to the turbidity of the 0.5 McFarland’s standard (Andrews, 2005) the bacteria suspension contained approximately 10^8 colony-forming units (CFU)/mL, and the suspension of yeast contained 10^6 CFU/mL; 1:100 dilutions of the initial suspension were additionally prepared in sterile 0.85% saline. The suspensions of fungal spores were prepared by gentle stripping of spores from slopes with growing mycelia. The resulting suspensions were 1:1000 diluted in sterile 0.85% saline.
(§4) Antimicrobial activity was tested by determining the minimum inhibitory concentrations (MICs) and minimum microbicidal concentrations (MBCs) using the microdilution plate method with resazurin [56]. The 96-well plates were prepared by dispensing 100 μL of Mueller–Hinton broth for bacteria and Sabouard broth for fungi into each well. A 10 μL aliquot from the stock solution of the tested extract or component was added to the first row of the plate. Then, two-fold serial dilutions were performed using a multichannel pipette. The obtained concentration range was from 10 to 0.08 mg/mL. The method is described in detail in [76].
(§5) Each test included growth control and sterility control.
(§6) Minimum microbicidal concentrations were determined by plating 10 μL of samples from wells where no indicator color change or no mycelia growth was recorded on a nutrient agar medium. At the end of the incubation period, the lowest concentration with no growth (no colony) was defined as the minimum microbicidal concentration.
(Dilution methods test growth across graded concentrations, often in twofold steps.)

The subject of experiment [2] is C. albicans (isolate). The experiment in a line: Microdilution with resazurin, antifungal. The settings on record: Candida albicans, antimycotics. Type of experiment: cell-based, Candida albicans. The protocol:
as §1, §2, §3, §4, §5, §6

In experiment [3] the test system is A. niger ATCC 16888. The experiment in a line: Microdilution with resazurin, antifungal. Type of experiment: cell-based, Aspergillus niger. The note with it: Aspergillus niger, ATCC16888, antimycotics. The protocol: as §1, §2, §3, §4, §5, §6
The test system of experiment [4] is P. aeruginosa biofilm. In words: Antibiofilm activity (biofilm formation, crystal violet). Format: cell-based, Pseudomonas aeruginosa. The note with it: 48 h; for IC50: Pseudomonas aeruginosa, read-out: BIC50 (biofilm inhibitory concentration, 50% reduction of biofilm coverage). The method, then: (§7) The ability of S. aureus ATCC 6538 and P. aeruginosa to form biofilms was assayed as described by O’Toole et al. with some modifications. Briefly, the tissue culture of 96-well microtiter plates (Sarstedt, Germany) were prepared by dispensing 100 µL of nutrient broth (i.e., Mueller–Hinton broth) into each well. Ten microliters of spore suspension (10^8 colony-forming units (CFU)/mL) was added into each row. […] Biofilms formed by adherent cells in 96-well microtiter plates were stained with crystal violet (0.1% w/v; Fluka AG, Buchs, Switzerland) and incubated at room temperature for 20 min. Excess stain was rinsed off by thorough washing with deionized water and then with […] of 96% ethanol. Optical densities (ODs) of stained adherent bacteria were determined with an enzyme-linked immunosorbent assay (ELISA) plate reader (RT-2100C, Rayto, Shenzhen, China) at a 630 nm wavelength. Only broth served as a control to check sterility and nonspecific binding of media. To compensate for background absorbance, OD readings from sterile medium, fixative, and dye were averaged and subtracted from all test values. All tests were performed in duplicate. The tissue culture of 96-well microtiter plates (Sarstedt, Nümbrecht, Germany) were prepared by dispensing 100 µL of nutrient broth (i.e., Mueller–Hinton broth) into each well. From the stock solution of the tested extracts or components (concentration: 20 mg/mL), 100 µL was added to the first row of the microtiter plate. Two-fold serial dilutions were then made using a multichannel pipette, following which 10 µL of fresh bacterial suspension was added to each well. The inoculated microtiter plates were incubated at 37 °C for 48 h. After incubation, the content of each well was gently removed by tapping the microtiter plates. […] Biofilms formed by adherent cells in 96-well microtiter plates were stained with crystal violet (0.1% w/v; Fluka AG, Switzerland) and incubated at room temperature for 20 min. Excess stain was rinsed off by thorough washing with deionized water and then with […] densities (ODs) of stained adherent bacteria were determined with an enzyme-linked immunosorbent assay (ELISA) plate reader at a 630 nm wavelength. […] Only broth or broth with extracts served as a control to check the sterility and nonspecific binding of media. To compensate for background absorbance, OD readings from sterile medium, extracts, fixative, and dye were averaged and subtracted from all test values. All tests were performed in duplicate.

Experiment [5] concerns S. aureus ATCC 6538 biofilm. Described as above. Type of experiment: cell-based, Staphylococcus aureus. The settings on record: for IC50: Staphylococcus aureus, read-out: BIC50 (biofilm inhibitory concentration, 50% reduction of biofilm coverage). The protocol: as §7
The subject of experiment [6] is MRC-5 cells (nontransformed human lung fibroblast). The experiment in a line: MTT assay. Type of experiment: cell-based. The note with it: for GI50 / IC50: Homo sapiens; for GI50: MRC5, read-out: GI50 (50% growth inhibition); for IC50: MRC5, read-out: IC50. (In general: Tetrazolium assays rely on reduction of a dye to a coloured formazan, in cell work by metabolically active cells.)

The test system of experiment [7] is HCT 116 cells (colon cancer). The experiment in a line: MTT assay. Format: cell-based, human. The note with it: for GI50 / IC50: Homo sapiens; for GI50: read-out: GI50 (50% growth inhibition); for IC50: read-out: IC50.
Experiment [8] has as its system HeLa cells (cervical adenocarcinoma). The experiment in a line: MTT assay. Type of experiment: cell-based, human. The settings on record: for TGI (total growth inhibition) / GI50 / IC50: HeLa; for GI50 / IC50: Homo sapiens; for GI50: read-out: GI50 (50% growth inhibition); for IC50: read-out: IC50; for SI (selectivity index): IC50 MRC-5 / IC50 HeLa.
Where [9] appears, read: S. aureus ATCC 6538, 37 °C, 48 h.

As usually defined, the MFC is the lowest tested concentration that kills the fungus rather than only halting it. As a reminder, the MIC is the lowest concentration that inhibits growth of the organism. With `C[C@@H]1[C@H](O)[C@@H](C)/C=C/C=C/C=C/C=C/C=C/C=C/C=C/[C@H](O[C@@H]2O[C@H](C)[C@@H](O)[C@H](N)[C@@H]2O)C[C@@H]2O[C@](O)(C[C@@H](O)C[C@@H](O)[C@H](O)CC[C@@H](O)C[C@@H](O)CC(=O)O[C@H]1C)C[C@H](O)[C@H]2C(=O)O` [AB, amphotericin B], the minimal fungicidal concentration (MFC) in experiment [1] (read-out: MFC) was 1.95 µg/mL (≈ 2.11 µM); in experiment [2] (read-out: MFC) it was 1.95 µg/mL (≈ 2.11 µM); in experiment [3] (read-out: MFC) it was 0.98 µg/mL (≈ 1.06 µM). Further, the minimal inhibitory concentration (MIC) in experiment [1] (read-out: MIC) turned out to be 0.49 µg/mL (≈ 0.53 µM); in experiment [2] (read-out: MIC) it was 0.98 µg/mL (≈ 1.06 µM); in experiment [3] (read-out: MIC), 0.98 µg/mL (≈ 1.06 µM).
Take `CO/N=C(\C(=O)N[C@@H]1C(=O)N2C(C(=O)O)=C(CSc3nc(=O)c(=O)[nH]n3C)CS[C@H]12)c1csc(N)n1` [CT, ceftriaxone]: the “BIC90 (biofilm inhibitory concentration, 90% reduction of biofilm coverage)” value in experiment [4] (P. aeruginosa, 37 °C) is greater than 1000 µg/mL; in experiment [5] (setting [9]) it was greater than 1000 µg/mL. For the same compound, the IC50 in experiment [4] (P. aeruginosa, 37 °C) is 116 µg/mL (≈ 210 µM); in experiment [5] (ATCC6538, S. aureus ATCC 6538, 37 °C, 48 h), 475 µg/mL (≈ 857 µM).
By GI50 is commonly meant the concentration at which growth is held to half of that of the control. Consider `COc1cccc2c1C(=O)c1c(O)c3c(c(O)c1C2=O)C[C@@](O)(C(=O)CO)C[C@@H]3O[C@H]1C[C@H](N)[C@H](O)[C@H](C)O1` [DOX, doxorubicin], for which the concentration for 50% growth inhibition (GI50) was less than 0.1 µg/mL in experiment [6] (MRC-5, 24 h); less than 0.1 µg/mL in experiment [6] (MRC-5, 48 h); less than 0.1 µg/mL in experiment [6] (MRC-5, 72 h); less than 0.1 µg/mL in experiment [7] (HCT 116, 24 h); less than 0.1 µg/mL in experiment [7] (HCT 116, 48 h); less than 0.1 µg/mL in experiment [7] (HCT 116, 72 h). Besides, the GI50 in experiment [8] (24 h), in experiment [8] (48 h) and in experiment [8] (72 h) was less than 0.1 µg/mL in each case. Also, the IC50 worked out at 86.9 ± 17.2 µg/mL (≈ 160 µM) in experiment [6] (MRC-5, 24 h); 0.96 ± 0.1 µg/mL (≈ 1.77 µM) in experiment [6] (MRC-5, 48 h); 0.1 ± 0.05 µg/mL (≈ 0.184 µM) in experiment [6] (MRC-5, 72 h); 153 ± 9.69 µg/mL (≈ 281 µM) in experiment [7] (HCT 116, 24 h); 0.41 ± 0.16 µg/mL (≈ 0.754 µM) in experiment [7] (HCT 116, 72 h); 22.9 ± 3.05 µg/mL (≈ 42.2 µM) in experiment [8] (24 h). For the same compound, the IC50 in experiment [8] (48 h) was 1.04 ± 0.06 µg/mL (≈ 1.91 µM); in experiment [8] (72 h) it was 0.14 ± 0.01 µg/mL (≈ 0.258 µM). Also, the “TGI (total growth inhibition)” value is reported as 54.71 ± 4.65 µg/mL (≈ 101 µM) in experiment [6] (MRC-5, 24 h); 6.34 ± 2.90 µg/mL (≈ 11.7 µM) in experiment [6] (MRC-5, 48 h); 2.35 ± 0.35 µg/mL (≈ 4.32 µM) in experiment [6] (MRC-5, 72 h); less than 0.1 µg/mL in experiment [7] (HCT 116, 24 h); less than 0.1 µg/mL in experiment [7] (HCT 116, 48 h); less than 0.1 µg/mL in experiment [7] (HCT 116, 72 h). Further, the “TGI (total growth inhibition)” value in experiment [8] (24 h), in experiment [8] (48 h) and in experiment [8] (72 h) was less than 0.1 µg/mL throughout. The “SI (selectivity index)” value in experiment [7] (IC50 MRC-5 / IC50 HCT 116, 24 h) was found to be 0.57; in experiment [7] (IC50 MRC-5 / IC50 HCT 116, 72 h) it was 0.24; in experiment [8] (24 h) it was 3.8; in experiment [8] (48 h), 0.92; in experiment [8] (72 h) it was 0.71.
`CN[C@H](CC(C)C)C(=O)N[C@H]1C(=O)N[C@@H](CC(N)=O)C(=O)N[C@H]2C(=O)N[C@H]3C(=O)N[C@H](C(=O)N[C@H](C(=O)O)c4cc(O)cc(O)c4-c4cc3ccc4O)[C@H](O)c3ccc(c(Cl)c3)Oc3cc2cc(c3O[C@@H]2O[C@H](CO)[C@@H](O)[C@H](O)[C@H]2O[C@H]2C[C@](C)(N)[C@H](O)[C@H](C)O2)Oc2ccc(cc2Cl)[C@H]1O` [VM, vancomycin]: the “BIC90 (biofilm inhibitory concentration, 90% reduction of biofilm coverage)” value is on record as greater than 1000 µg/mL in experiment [4] (P. aeruginosa, 37 °C) and greater than 1000 µg/mL in experiment [5] (setting [9]). In addition, the IC50 in experiment [4] was 734 µg/mL (≈ 506 µM); in experiment [5] (ATCC6538, 48 h), 62.6 µg/mL (≈ 43.2 µM).
